Reference: patent US11053253B2, “Macrocyclic compounds for treatment of medical disorders” (Achillion Pharmaceuticals, Inc., priority 2017, dated 2021)

target: Human Factor D (Homo sapiens (Human), UniProt P00746); assay: Human Factor D Assay; type: biochemical; conditions: Human Factor D 80 nM, substrate Z-L-Lys-SBzl, DTNB, A405; read-out: IC50 (Stars)
Summary of the method: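 Serum-purified enzyme (80 nM final) was preincubated with compound 5 min at room temperature in 50 mM Tris, 1M NaCl, pH 7.5. Z-L-Lys-SBzl and DTNB ([…] each, final) were added and A405 followed every 30 s for 30 min; IC50 from nonlinear regression of reaction rates.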

Human Factor D, sequence (P00746 26-253): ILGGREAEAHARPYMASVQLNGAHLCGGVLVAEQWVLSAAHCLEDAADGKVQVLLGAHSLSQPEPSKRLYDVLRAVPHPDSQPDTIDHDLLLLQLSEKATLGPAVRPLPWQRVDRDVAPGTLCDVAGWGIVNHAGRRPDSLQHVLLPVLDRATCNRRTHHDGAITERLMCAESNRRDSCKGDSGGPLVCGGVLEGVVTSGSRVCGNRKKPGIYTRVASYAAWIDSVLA

| Molecule | IC50 |
| --- | --- |
| CC(=O)c1nn(CC(=O)N2[C@H]3C[C@@]4(COCC=CCOCc5ccc(Br)nc5NC3=O)C[C@@H]24)c2cnccc12 [Compound T-11, (41R,43S,45S)-42-(2-(3-acetyl-1H-pyrazolo[3,4-c]pyridin-1-yl)acetyl)-16-bromo-6,11-dioxa-42,2-diaza-1(2,3)-pyridina-4(3,5)-bicyclo[3.1.0]hexanacyclododecaphan-8-en-3-one] | < 1000 nM |
| Cc1ncc(-c2cc3c4c(c2)c(C(N)=O)nn4CC(=O)N2[C@H](C(=O)Nc4nc(C(F)(F)F)ccc4C)C[C@@]4(CNC(=O)CCCC=CC3)C[C@@H]24)cn1 [Compound T-134] | < 1000 nM |
| CC(=O)c1nn(CC(=O)N2C[C@@]3(F)CNC(=O)CCCCCOCc4ccc(Br)nc4NC(=O)[C@@H]2C3)c2cnc(-c3cnc(C)nc3)cc12 [Compound T-169] | < 1000 nM |
| CC(=O)c1nn(CC(=O)N2C[C@@]3(F)COCCCCCCCc4ccc(Br)nc4NC(=O)[C@@H]2C3)c2ccc(-c3cnc(C)nc3)cc12 [Compound T-106] | < 1000 nM |
| CC(=O)c1nn(CC(=O)N2[C@H]3C[C@@]4(CNC(=O)C(C)(C)CCCOCc5ccc(C(F)(F)F)nc5NC3=O)C[C@@H]24)c2cnc(-c3cnc(C)nc3)cc12 [Compound T-225] | < 1000 nM |
| CC(=O)c1nn(CC(=O)N2C[C@@]3(F)COCCCCCCCc4ccc(Br)nc4NC(=O)[C@@H]2C3)c2c(C)nc(-c3cnc(C)nc3)cc12 [Compound T-107] | < 1000 nM |
| CC(=O)c1nn2c3c(cc(-c4cnc(C)nc4)cc13)CC=CCCCC(=O)NC[C@@]13C[C@@H](C(=O)Nc4nc(Br)ccc4C)N(C(=O)C2)[C@@H]1C3 [Compound T-21, (41R,43S,45R)-13-acetyl-N-(6-bromo-3-methylpyridin-2-yl)-15-(2-methylpyrimidin-5-yl)-3,7-dioxo-11H-42,6-diaza-1(1,7)-indazoia-4(2,5)-bicyclo[3.1.0]hexanacyclotridecaphan-11-ene-43-carboxamide] | < 1000 nM |
| CC(=O)c1nn(CC(=O)N2C[C@@]3(F)CNC(=O)C(C)(C)CC=CCOCc4ccc(Br)nc4NC(=O)[C@@H]2C3)c2ccc(-c3cnc(C)nc3)cc12 [Compound T-172] | < 1000 nM |
| CC(=O)c1nn2c3c(cc(-c4cnc(C)nc4)cc13)CCCCCCC(=O)NC[C@@]13C[C@@H](C(=O)Nc4cc(F)cc(Br)n4)N(C(=O)C2)[C@@H]1C3 [Compound T-90] | < 1000 nM |
| COc1cc(NC(=O)[C@@H]2C[C@]34CNC(=O)CCCC=CCc5cc(-c6cnc(C)nc6)cc6c(C(C)=O)nn(c56)CC(=O)N2[C@@H]3C4)nc(Br)c1F [Compound T-229] | < 1000 nM |
| CC(=O)c1nn2c3c(cc(-c4cnc(C)nc4)cc13)CC=CCCC(C)(C)C(=O)NC[C@@]13C[C@@H](C(=O)Nc4ccn(CC(F)(F)F)n4)N(C(=O)C2)[C@@H]1C3 [Compound T-184] | < 1000 nM |

system: not given; assay: not given; conditions: rcm bond; 20-membered ring; Grubbs II; toluene; 1.6 mM; 80.0 °C

| Molecule | ring closure, yield after HPLC |
| --- | --- |
| (4^1R,4^3S,4^5S,Z)-1^3-acetyl-N-(6-bromo-3-methylpyridin-2-yl)-3,14-dioxo-1^1H-6-oxa-4^2,13,15-triaza-1(1,6)-indazola-4(2,5)-bicyclo[3.1.0]hexanacyclopentadecaphan-8-ene-43-carboxamide | 2.1% |

system: not given; assay: not given; conditions: from C=CCCCC(=O)NC[C@]12C[C@@H](C(=O)Nc3nc(Br)ccc3C)N[C@]1(C(=O)Cn1nc(C#N)c3cc(-c4cnc(C)nc4)nc(CC=C)c31)C2; rcm bond; 17-membered ring; Grubbs II; toluene; 1.27 mM; 80.0 °C; 16.0 h

| Molecule | ring closure, isolated yield |
| --- | --- |
| Cc1ncc(-c2cc3c(C#N)nn4c3c(n2)CC=CCCCC(=O)NC[C@]23C[C@@H](C(=O)Nc5nc(Br)ccc5C)N[C@@]2(C3)C(=O)C4)cn1 | 44.8% |

same assay, conditions: from C=CCCCNC(=O)Oc1ccc2c(C(C)=O)nn(CC(=O)N3[C@H](C(=O)Nc4nc(Br)ccc4C)C[C@@]4(COCC=C)C[C@@H]34)c2c1; rcm bond; 20-membered ring; Grubbs II; toluene; 1.48 mM; 80.0 °C; 16.0 h

| Molecule | ring closure, isolated yield |
| --- | --- |
| CC(=O)c1nn2c3cc(ccc13)OC(=O)NCCCC=CCOC[C@@]13C[C@@H](C(=O)Nc4nc(Br)ccc4C)N(C(=O)C2)[C@@H]1C3 | 4.1% |

same assay, conditions: from C=CCOCc1ccc(Br)nc1NC(=O)[C@@H]1C[C@@]2(CN(C)CC=C)C[C@H]2N1C(=O)OC(C)(C)C; rcm bond; 15-membered ring; Hoveyda-Grubbs II (extra 5 mg portions); toluene; 10.0 mM; 80.0 °C; 2.0 h

| Molecule | ring closure, isolated yield |
| --- | --- |
| CN1CC=CCOCc2ccc(Br)nc2NC(=O)[C@@H]2C[C@]3(C[C@H]3N2C(=O)OC(C)(C)C)C1 | 68% |
